Structures are written as SMILES.

The test concerns the target T1, Histone deacetylase 8 (Homo sapiens, UniProt Q9BY41).
T1 sequence (Q9BY41 whole entry): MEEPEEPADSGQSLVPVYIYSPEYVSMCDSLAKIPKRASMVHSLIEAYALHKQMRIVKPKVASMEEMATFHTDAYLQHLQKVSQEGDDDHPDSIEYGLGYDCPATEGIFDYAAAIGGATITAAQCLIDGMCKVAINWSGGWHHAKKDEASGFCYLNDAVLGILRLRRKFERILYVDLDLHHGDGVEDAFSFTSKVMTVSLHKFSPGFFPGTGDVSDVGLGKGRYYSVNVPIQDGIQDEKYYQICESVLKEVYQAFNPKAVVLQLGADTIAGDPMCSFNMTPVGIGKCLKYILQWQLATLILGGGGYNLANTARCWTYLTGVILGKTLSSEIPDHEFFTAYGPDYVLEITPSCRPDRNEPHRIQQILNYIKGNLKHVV
Kind of test: Inhibition of Homo sapiens (human) HDAC8.
Broadly, the IC50 is the concentration that gives 50% inhibition. Consider `COc1ccc(CS(=O)(=O)Nc2ccc(/C=C\C(=O)NO)cc2)cc1OC`, for which the IC50 was 90 nM.

Turning to `COc1ccc(C(=O)CCCCCCC(=O)NO)cc1`, the half-maximal inhibitory concentration (IC50) came to 450 nM.

Regarding `CC(C)(C)c1ccc(CS(=O)(=O)Nc2ccc(/C=C\C(=O)NO)cc2)cc1`, the IC50 came out at 100 nM.

As for `O=C(/C=C/C=C/c1ccc(-c2ccccc2)cc1)NO`, the IC50 is > 5000 nM.

For the compound `O=C(CCCCCCC(=O)c1ccccc1)NO`, it took 500 nM to reach half-maximal inhibition (IC50).

For the compound `O=C(CCCCCCCC(=O)c1ccc(N2CCCCC2)cc1)NO`, half-maximal inhibition (IC50) required 9.5 nM.

Compound `O=C(/C=C/c1ccc(Cc2ccc(O)c(Cl)c2)cc1)NO` showed an IC50 of 460 nM.

`O=C(/C=C/c1ccc(NS(=O)(=O)c2ccc(Cl)c(Cl)c2)cc1)NO`: the IC50 amounted to 100 nM.

Consider `COc1ccc(CS(=O)(=O)Nc2ccc(/C=C\C(=O)NO)cc2)cc1`, for which the IC50 came out at 60 nM.

For the compound `Cc1ccc(S(=O)(=O)Nc2ccc(/C=C/C(=O)NO)cc2)cc1`, the IC50 worked out at 300 nM.

As to `O=C(CCCCCCCC(=O)c1ccc(-c2ccc(Br)cc2)cc1)NO`, the IC50 worked out at 2 nM.

`O=C(/C=C/c1ccc(Cc2ccc(CO)cc2)cc1)NO` showed an IC50 of 20 nM.

Consider `O=C(CCc1ccc(-c2ccc(O)cc2)cc1)NO`, for which the IC50 is 1700 nM.

For the compound `O=C(CCCCCCCC(=O)c1ccc(N2CCN(c3ccccc3)CC2)cc1)NO`, the IC50 came to 4.5 nM.

Turning to `O=C(CCCCCCCCc1ccc2ccccc2c1)NO`, half-maximal inhibition (IC50) was put at 25 nM.

On to `O=C(/C=C/c1cccc(-c2ccc(O)cc2)c1)NO`, for which half-maximal inhibition (IC50) required 320 nM.

Regarding `Nc1cc(Cl)ccc1NC(=O)c1ccc(CNC(=O)OCc2cccnc2)cc1`, the IC50 worked out at 40000 nM.

Regarding `O=C(CCCCCCCC(=O)c1ccc(-c2ccccc2)cc1)NO`, the IC50 turned out to be 5 nM.

The compound `COc1ccc(N)c(NC(=O)c2ccc(CNC(=O)OCc3cccnc3)cc2)c1` yielded an IC50 of 4600 nM.

For `O=C(CCCCCCC/C(=N\O)c1ccc(-c2ccccc2)cc1)NO`, the IC50 is 4 nM.

Compound `O=C(/C=C/c1ccc(NS(=O)(=O)c2ccc(Cl)cc2Cl)cc1)NO` gave an IC50 of 300 nM.

`Nc1ccc(Cl)cc1NC(=O)c1ccc(CNC(=O)OCc2cccnc2)cc1` yielded an IC50 of 7700 nM.

The compound `Cn1cc(C(=O)Cl)cc1/C=C/C(=O)NO` displayed an IC50 of 9650 nM.

Turning to `O=C(Cc1ccc(NS(=O)(=O)c2ccccc2)cc1)NO`, inhibition was half-maximal at 900 nM (IC50).

`COc1ccccc1C(=O)CCCCCCCC(=O)NO`: it took 95 nM to reach half-maximal inhibition (IC50).

`O=C(CCCCCCCC(=O)c1ccc(C(F)(F)F)cc1)NO`: it took 45 nM to reach half-maximal inhibition (IC50).

`O=C(NO)c1ccc(CCCc2ccccc2)cc1`: half-maximal inhibition (IC50) required 1000 nM.

Consider `O=C(CCCCCCCC(=O)c1ccc(Br)cc1)NO`, for which the IC50 came to 45 nM.

Turning to `O=C(NCc1ccc(C(=O)Nc2ccccc2O)cc1)OCc1cccnc1`, the IC50 was 2200 nM.

Regarding `CC(=O)Nc1ccccc1NC(=O)c1ccc(CNC(=O)OCc2cccnc2)cc1`, the IC50 is > 100000 nM.

As to `COc1ccc(NC(=O)c2ccc(CNC(=O)OCc3cccnc3)cc2)c(N)c1`, the IC50 was 44000 nM.

With `CC(=O)c1cc(/C=C/C(=O)NO)n(C)c1`, the concentration for half-maximal inhibition (IC50) was determined as 11300 nM.

Turning to `Nc1cccc(NC(=O)c2ccc(CNC(=O)OCc3cccnc3)cc2)c1`, the IC50 was > 100000 nM.

Take `O=C(CCc1ccc(NS(=O)(=O)c2ccccc2)cc1)NO`: the IC50 was 100 nM.

`CC(C)c1cc(C(C)C)c(C(C)C)cc1CS(=O)(=O)Nc1ccc(/C=C\C(=O)NO)cc1` showed an IC50 of 600 nM.

For the compound `O=C(NCc1ccc(C(=O)Nc2ccccc2)cc1)OCc1cccnc1`, the IC50 was > 100000 nM.

`Cc1ccc(N)c(NC(=O)c2ccc(CNC(=O)OCc3cccnc3)cc2)c1`: the half-inhibitory concentration (IC50) was 2800 nM.

With `O=C(CCCCCC(=O)c1ccccc1)NO`, it took 1500 nM to reach half-maximal inhibition (IC50).

Regarding `Cn1cc(C=O)cc1CCC(=O)NO`, 52600 nM corresponded to half-maximal inhibition (IC50).

`CC(CCCCCC(=O)c1ccc2ccccc2c1)C(=O)NOCCCCC(=O)NO` (stereo unspecified) came in with an IC50 of 600 nM.

In turn, `C/C(=C\Cc1ccc(NS(=O)(=O)c2ccccc2)cc1)CC(=O)NO` yielded an IC50 of 2000 nM.

As for `O=C(CCCCCCC(=O)c1ccc2ccccc2c1)NO`, half-maximal inhibition (IC50) was put at 35 nM.

As to `Cc1cccc(NC(=O)c2ccc(CNC(=O)OCc3cccnc3)cc2)c1N`, the IC50 was > 100000 nM.

Compound `O=C(CCCCCCC/C(=N\O)c1ccc2ccccc2c1)NO` registered an IC50 of 8.5 nM.

Compound `O=C(CCCCCCCC(O)c1ccc2ccccc2c1)NO` (stereo unspecified) displayed an IC50 of 35 nM.

Regarding `Cn1cc(C=O)cc1/C=C/C(=O)NO`, 12300 nM corresponded to half-maximal inhibition (IC50).

Consider `O=C(CCCCCCCC(=O)c1cccnc1)NO`, for which the IC50 is 153 nM.

In turn, `Nc1ccc(F)cc1NC(=O)c1ccc(CNC(=O)OCc2cccnc2)cc1` returned an IC50 of 6000 nM.

`O=C(CCCCCCCN1C(=O)c2ccccc2C1=O)NO` came in with an IC50 of 71.4 nM.

`C=C(CCCCCCCC(=O)NO)c1ccc2ccccc2c1` returned an IC50 of 8 nM.

Compound `COc1ccc(C(=O)CCCCCCCC(=O)NO)cc1` had an IC50 of 15 nM.

`O=C(CCCCCC/C=C/c1ccc2ccccc2c1)NO`: the IC50 turned out to be 6 nM.

`Nc1ccc(NC(=O)c2ccc(CNC(=O)OCc3cccnc3)cc2)cc1`: the IC50 was > 100000 nM.

Turning to `Cc1ccc(NC(=O)c2ccc(CNC(=O)OCc3cccnc3)cc2)c(N)c1`, the IC50 was > 100000 nM.

`O=C(CCCCCCCC(=O)c1ccccc1)NO` had an IC50 of 65 nM.

Consider `O=C(CCCCCCCCC(=O)c1ccccc1)NO`, for which the 50% inhibitory concentration (IC50) is 135 nM.

For the origin of these results see ChEMBL document CHEMBL3045730, “An efficient anticancer histone deacetylase inhibitor and its analogues for human HDAC8” (Med Chem Res, 2012).
